The values that follow come from patent US20040147545A1, “Derivatives of oxazolidinones as antibacterial agents” (priority 2001, published 2004).

Each structure is given as a SMILES string. Converted amounts (≈) assume the structure as drawn.

Common to all, as to type: cell-based
For assay [1], the system named is S. pneumoniae resistant to penicillin. Kind of assay: Antibacterial activity, microdilution in culture broth (NCCLS), strain C. The conditions noted are these: Streptococcus pneumoniae, G (+) hospital strain, inoculum 5×10^5 UFC/ml. The source says:
(§1) The antibacterial activity of the new synthesised compounds on the various strains of the bacterial species was implemented using the technique of microdilution in culture broth according to the regulations of the National Committee for Clinical Laboratory Standards (NCCLS), (NCCLS. 1993. Methods for dilution antimicrobial susceptibility tests for bacteria that grow aerobically. Approved standard M7-A3. NCCLS, Vilanova. Pa., and NCCLS. 1993. Methods for dilution antimicrobial susceptibility tests for anaerobic bacteria […]. Approved standard M1-A3. NCCLS, Vilanova. Pa.).
(§2) The inoculum used was 5×10^5 UFC/ml following dilution of the cultures overnight in the exponential phase of bacterial growth.
(§3) The MIC expressed in mg/l was defined as the minimum concentration of antibiotic which inhibited any visible growth.
(§4) Linezolid was included as comparative compound.
(§5) The compounds were tested on the strains of G(+) and G(−) bacteria set out in Table 1, in which: […]
Background: Broth dilution looks for growth in wells or tubes with falling amounts of substance.

The subject of the next assay is S. agalactiae. The experiment in a line: Antibacterial activity, microdilution in culture broth (NCCLS), strain D. The following applies: Streptococcus agalactiae, G (+) hospital strain, inoculum 5×10^5 UFC/ml.
Text: as §1, §2, §3, §4, §5

For the next assay, the system named is B. fragilis. The experiment in a line: Antibacterial activity, microdilution in culture broth (NCCLS), strain G (anaerobic). The conditions noted are these: Bacteroides fragilis, anaerobic hospital strain, inoculum 5×10^5 UFC/ml.
Text: as §1, §2, §3, §4, §5

The test system of assay [2] is S. aureus resistant to meticillin. The experiment in a line: Antibacterial activity, microdilution in culture broth (NCCLS), strain A. The following applies: Staphylococcus aureus, G (+) hospital strain, inoculum 5×10^5 UFC/ml.
Text: as §1, §2, §3, §4, §5

The test system of another assay is M. Catarrahalis. The experiment in a line: Antibacterial activity, microdilution in culture broth (NCCLS), strain J. The conditions noted are these: G (−) hospital strain, inoculum 5×10^5 UFC/ml.
Text: as §1, §2, §3, §4, §5

The test system of a further assay is S. pyogenes. The experiment in a line: Antibacterial activity, microdilution in culture broth (NCCLS), strain F. The following applies: Streptococcus pyogenes, G (+) hospital strain, inoculum 5×10^5 UFC/ml.
Text: as §1, §2, §3, §5

A further assay concerns H. influenzae. The experiment in a line: Antibacterial activity, microdilution in culture broth (NCCLS), strain I. The conditions noted are these: Haemophilus influenzae, G (−) hospital strain, inoculum 5×10^5 UFC/ml.
Text: as §1, §2, §3, §4, §5

The test system of assay [3] is E. faecalis resistant to vancomycin. The experiment in a line: Antibacterial activity, microdilution in culture broth (NCCLS), strain B. The following applies: Enterococcus faecalis, G (+) hospital strain, inoculum 5×10^5 UFC/ml.
Text: as §1, §2, §3, §4, §5

For the next assay, the system named is E. coli. The experiment in a line: Antibacterial activity, microdilution in culture broth (NCCLS), strain H. The conditions noted are these: Escherichia coli, G (−) hospital strain, inoculum 5×10^5 UFC/ml.
Text: as §1, §2, §3, §4, §5

The test system of a further assay is S. epidermidis. Kind of assay: Antibacterial activity, microdilution in culture broth (NCCLS), strain E. The following applies: Staphylococcus epidermidis, G (+) hospital strain, inoculum 5×10^5 UFC/ml.
Text: as §1, §2, §3, §4, §5

As for `CC(=O)NC[C@H]1CN(c2ccc(N3CCN(c4cc5c(cc4F)c(=O)c(C(=O)O)cn5C4CC4)CC3)c(F)c2)C(=O)O1` [EXAMP. 1 + 8, 7-(4-{4-[5-(S)-(acetylamino-methyl)-2-oxo-oxazolidin-3-yl]-2-fluoro-phenyl}-piperazin-1-yl)-1-cyclopropyl-6-fluoro-4-oxo-1,4-dihydro-quinoline-3-carboxylic Acid], the MIC in [1] is less than 0.125 µg/mL; against S. agalactiae, 0.125 µg/mL; with B. fragilis it was 0.25 µg/mL; in [2], 0.25 µg/mL; in the assay on M. Catarrahalis it was 0.25 µg/mL; with S. pyogenes, less than 0.125 µg/mL. In addition, the MIC in the assay on H. influenzae was 0.25 µg/mL; in assay [3] it was 0.125 µg/mL; against E. coli, 8 µg/mL; in the assay on S. epidermidis, 0.125 µg/mL.

On to `CCn1cc(C(=O)O)c(=O)c2cc(F)c(N3CCN(c4ccc(N5C[C@H](CNC(C)=O)OC5=O)cc4F)CC3)c(F)c21` [EXAMP. 3, 7-(4-{4-[5-(S)-(acetylamino-methyl)-2-oxo-oxazolidin-3-yl]-2-fluoro-phenyl}-piperazin-1-yl)-1-ethyl-6,8-difluoro-4-oxo-1,4-dihydro-quinoline-3-carboxylic Acid], for which the MIC in [1] was less than 0.125 µg/mL; against S. agalactiae, less than 0.125 µg/mL; against B. fragilis, 0.5 µg/mL (≈ 0.851 µM); in [2], less than 0.125 µg/mL; with M. Catarrahalis, 0.5 µg/mL (≈ 0.851 µM); against S. pyogenes, less than 0.125 µg/mL. The MIC in the assay on H. influenzae is 4 µg/mL (≈ 6.81 µM); in [3], less than 0.125 µg/mL; with E. coli, 64 µg/mL (≈ 109 µM); against S. epidermidis it was less than 0.125 µg/mL.

Take `CCn1cc(C(=O)O)c(=O)c2cc(F)c(N3CCN(c4ccc(N5C[C@H](CNC(C)=O)OC5=O)cc4F)CC3)cc21` [EXAMP. 4, 7-(4-{4-[5-(S)-(acetylamino-methyl)-2-oxo-oxazolidin-3-yl]-2-fluoro-phenyl}-piperazin-1-yl)-1-ethyl-6-fluoro-4-oxo-1,4-dihydro-quinoline-3-carboxylic Acid]: the MIC in assay [1] was less than 0.125 µg/mL; in the assay with S. agalactiae, less than 0.125 µg/mL; in the assay with B. fragilis, 0.5 µg/mL (≈ 0.878 µM); in [2], 0.25 µg/mL (≈ 0.439 µM); in the assay on M. Catarrahalis it was 1 µg/mL (≈ 1.76 µM); in the assay on S. pyogenes, less than 0.125 µg/mL. Moreover, the MIC is 2 µg/mL (≈ 3.51 µM) against H. influenzae, 0.25 µg/mL (≈ 0.439 µM) in [3], 16 µg/mL (≈ 28.1 µM) against E. coli and less than 0.125 µg/mL in the assay with S. epidermidis.

Consider `CC(=O)NC[C@H]1CN(c2ccc(N3CCN(c4c(F)cc5c(=O)c(C(=O)O)cn6c5c4OCC6C)CC3)cc2)C(=O)O1` (stereo partly drawn) [EXAMP. 5, 9-(4-{4-[5-(S)-(acetylamino-methyl)-2-oxo-oxazolidin-3-yl]-phenyl}-piperazin-1-yl)-8-fluoro-3-methyl-6-oxo-2,3-dihydro-6H-1-oxa-3a-aza-phenalen-5-carboxylic Acid], for which the MIC in [1] came to 0.5 µg/mL (≈ 0.863 µM); against S. agalactiae it was 0.5 µg/mL (≈ 0.863 µM); against B. fragilis, 2 µg/mL (≈ 3.45 µM); in [2] it was 0.5 µg/mL (≈ 0.863 µM); against M. Catarrahalis, 1 µg/mL (≈ 1.73 µM); with S. pyogenes it was 0.5 µg/mL (≈ 0.863 µM). Besides, the MIC came out at 1 µg/mL (≈ 1.73 µM) against H. influenzae, 0.5 µg/mL (≈ 0.863 µM) in assay [3], 4 µg/mL (≈ 6.9 µM) with E. coli and 0.25 µg/mL (≈ 0.431 µM) with S. epidermidis.

With `CC(=O)NC[C@H]1CN(c2ccc(N3CCOCC3)c(F)c2)C(=O)O1` [Linezolid, reference compound], the MIC in assay [1] turned out to be 1 µg/mL (≈ 2.96 µM); in the assay with S. agalactiae it was 2 µg/mL (≈ 5.93 µM); against B. fragilis it was 2 µg/mL (≈ 5.93 µM); in assay [2], 2 µg/mL (≈ 5.93 µM); against M. Catarrahalis it was 16 µg/mL (≈ 47.4 µM); against H. influenzae, 16 µg/mL (≈ 47.4 µM). The MIC in assay [3] was 2 µg/mL (≈ 5.93 µM); with E. coli, greater than 64 µg/mL; with S. epidermidis it was 1 µg/mL (≈ 2.96 µM).
